Reference: article PMC6271273, “Chemo-Enzymatic Synthesis of Silybin and 2,3-Dehydrosilybin Dimers” (Molecules, 2014)
Marks after values point to notes of the source that are not given here.

Key:
[1] = Square wave voltammetry (in situ / ex situ) at pyrolytic graphite electrode; type: physicochemical; conditions: SWV, vs. Ag/AgCl/3 M KCl, pH 7.4, n = 3; for Oxidation potential Ep1: ascribed to oxidation of C-20 OH; for Oxidation potential Ep2: oxidation of resorcinol moiety (ring A)
Procedure: The monomeric flavonolignans and their dimers were analyzed using in situ voltammetry with the working electrode (PGE: pyrolytic graphite electrode) dipped in the supporting electrolyte containing the analytes and/or ex situ voltammetric analysis (adsorptive transfer, AdT technique). For this purpose, the PGE was first dipped into a 5 µL aliquot of the studied sample. After an accumulation period (30 s), the electrode was washed with deionized water and placed in an electrochemical cell containing pure supporting electrolyte. Square-wave voltammetry (SWV) and cyclic voltammetry (CV) were performed at room temperature with a µAutolab III analyzer (EcoChemie, Utrecht, The Netherlands) in a three-electrode setup (Ag/AgCl 3M KCl electrode as a reference and a platinum wire as the auxiliary electrode). SWV parameters: frequency: 200 Hz, from 0 V to +1.5 V, concentration of tested compounds (50 µM), supporting electrolyte: Britton-Robinson buffer, pH 7.4. The flavonolignans analyzed were dissolved in methanol as a stock solution of 1 mg mL^−1 (stored in a fridge in the dark), and diluted with the supporting electrolyte and/or 0.2 M acetate buffer (pH 5) for in situ and/or ex situ voltammetry. Ex situ a.c. voltammetry (out-of-phase) was carried out with a hanging mercury drop electrode (HMDE) according to the previously published paper. In this case, the flavonolignans (50 µM) were adsorbed from 0.2 M acetate buffer (pH 5) for 30 s. For current responses and potentials (Ep), the standard deviations (S.D.) were less than ±3.55% and ±3 mV for all experiments, respectively.

[2] = DPPH radical scavenging assay; type: biochemical; conditions: 33 µM test compound, n = 4, absorbance at 517 nm after 30 min
Procedure: Antiradical activity was evaluated spectrophotometrically as the ability of the tested substances to reduce the 1,1-diphenyl-2-picrylhydrazyl (DPPH) radical as described previously with minor modifications. Briefly, a solution of the tested substance (10 µL, final concentration 0–540 µM) were mixed with a freshly prepared methanolic DPPH solution (290 µL, final concentration 20 µM) in a microtiter plate well. After 30 min, absorbance at 517 nm was measured, percentages of inhibition were calculated using the negative control and for selected compounds the IC50 values were obtained from the inhibition curves.

| Oxidation potential Ep1 [1] | Oxidation potential Ep2 [1] | Structure (SMILES) | DPPH [% of inhibition] [2] |
| --- | --- | --- | --- |
| 0.56 V | 0.80 V | COc1cc(C2Oc3cc([C@H]4Oc5cc(OCc6ccc(COc7cc(O)c8c(c7)O[C@H](c7ccc9c(c7)OC(c7ccc(O)c(OC)c7)C(CO)O9)[C@@H](O)C8=O)cc6)cc(O)c5C(=O)[C@@H]4O)ccc3OC2CO)ccc1O (stereo partly drawn) [Compound 10, (2R,2'R,3R,3'R)-7,7'-((1,4-Phenylenebis(methylene))bis(oxy))bis(3,5-dihydroxy-2-(3-(4-hydroxy-3-methoxyphenyl)-2-(hydroxymethyl)-2,3-dihydrobenzo[b][1,4]dioxin-6-yl)chroman-4-one)] | 8.1 ± 3.4 ^a % |
| 0.57 V | 0.83 V | COc1cc([C@@H]2Oc3cc([C@H]4Oc5cc(OCc6ccc(COc7cc(O)c8c(c7)O[C@H](c7ccc9c(c7)O[C@@H](c7ccc(O)c(OC)c7)[C@H](CO)O9)[C@@H](O)C8=O)cc6)cc(O)c5C(=O)[C@@H]4O)ccc3O[C@H]2CO)ccc1O [Compound 9, (2R,2'R,3R,3'R)-7,7'-((1,4-Phenylenebis(methylene))bis(oxy))bis(3,5-dihydroxy-2-((2S,3S)-3-(4-hydroxy-3-methoxyphenyl)-2-(hydroxymethyl)-2,3-dihydrobenzo[b][1,4]dioxin-6-yl)chroman-4-one)] | 8.9 ± 4.0 ^a % |
| 0.56 V | 0.81 V | COc1cc([C@H]2Oc3cc([C@H]4Oc5cc(OCc6ccc(COc7cc(O)c8c(c7)O[C@H](c7ccc9c(c7)O[C@H](c7ccc(O)c(OC)c7)[C@@H](CO)O9)[C@@H](O)C8=O)cc6)cc(O)c5C(=O)[C@@H]4O)ccc3O[C@@H]2CO)ccc1O [Compound 8, (2R,2'R,3R,3'R)-7,7'-((1,4-Phenylenebis(methylene))bis(oxy))bis(3,5-dihydroxy-2-((2R,3R)-3-(4-hydroxy-3-methoxyphenyl)-2-(hydroxymethyl)-2,3-dihydrobenzo[b][1,4]dioxin-6-yl)chroman-4-one)] | 8.5 ± 3.7 ^a % |
| 0.52 V | 0.87 V | COc1cc(C2Oc3cc([C@H]4Oc5cc(OCc6cccc(COc7cc(O)c8c(c7)O[C@H](c7ccc9c(c7)OC(c7ccc(O)c(OC)c7)C(CO)O9)[C@@H](O)C8=O)c6)cc(O)c5C(=O)[C@@H]4O)ccc3OC2CO)ccc1O (stereo partly drawn) [Compound 11, (2R,2'R,3R,3'R)-7,7'-((1,3-Phenylenebis(methylene))bis(oxy))bis(3,5-dihydroxy-2-(3-(4-hydroxy-3-methoxyphenyl)-2-(hydroxymethyl)-2,3-dihydrobenzo[b][1,4]dioxin-6-yl)chroman-4-one)] | 10.7 ± 3.1 ^a % |
